# Values quoted from earlier work, collected in PubChem BioAssay AID1259409 (Chemical Carcinogenesis Research Information System (CCRIS), 2018).
# System: rodent chemically induced tumor inhibition, incidence and multiplicity
# Assay: CCRIS tumor inhibitor studies
structure (smiles),measurement,setting,value
COc1cc(/C=C/C(=O)CC(=O)/C=C/c2ccc(O)c(OC)c2)ccc1O,"tumour outcome (control, treated, inhibition, significance)","Carcinogen: 1,2-DIMETHYLHYDRAZINE [540-73-8], Species: RAT, Strain/Sex: WISTAR, Target Tissue: Type of Lesion: COLON, Dose [Carcinogen]: 20 MG/KG","81.3%, 61%, 25%, p<0.05"
same,"tumour outcome (control, treated, inhibition, significance)","Carcinogen: 2,2'-DIHYDROXY-DI-N-PROPYLNITROSAMINE, 53609-64-6, N-ETHYL-N-HYDROXYETHYLNITROSAMINE, 13147-25-6, 3,2'-DIMETHYL-1,4-, Carcinogen: 2,2'-DIHYDROXY-DI-N-PROPYLNITROSAMINE, 53609-64-6, N-ETHYL-N-HYDROXYETHYLNITROSAMINE, 13147-25-6, 3,2'-DIMETHYL-1,4-, Dose [Inhibitor]: 0, 1% IN DIET FOR 4 WK BEGINNING 1 D PRIOR TO FIRST CARCINOGEN DOSE (STUDY DURATION: 36 WK), Route [Inhibitor]: ORAL, Species: RAT, Strain/Sex: F344/MALE, Target Tissue: Type of Lesion: KIDNEY: ADENOMA, Dose [Carcinogen]: 1000 MG/KG BW DHPN TWICE, 1500 MG/KG EHEN TWICE, 75 MG/KG BW DMAB 3 TIMES, SEQUENTIALLY OVER 3 WK, Promoter: NONE USED","6/10 (60%), 6/13 (46%), 23%, not significant"
same,"tumour outcome (control, treated, inhibition, significance)","Carcinogen: 2,2'-DIHYDROXY-DI-N-PROPYLNITROSAMINE, 53609-64-6, N-ETHYL-N-HYDROXYETHYLNITROSAMINE, 13147-25-6, 3,2'-DIMETHYL-1,4-, Carcinogen: 2,2'-DIHYDROXY-DI-N-PROPYLNITROSAMINE, 53609-64-6, N-ETHYL-N-HYDROXYETHYLNITROSAMINE, 13147-25-6, 3,2'-DIMETHYL-1,4-, Dose [Inhibitor]: 0, 1% IN DIET FOR 4 WK BEGINNING 1 D PRIOR TO FIRST CARCINOGEN DOSE (STUDY DURATION: 36 WK), Route [Inhibitor]: ORAL, Species: RAT, Strain/Sex: F344/MALE, Target Tissue: Type of Lesion: LUNG: ADENOMA, Dose [Carcinogen]: 1000 MG/KG BW DHPN TWICE, 1500 MG/KG EHEN TWICE, 75 MG/KG BW DMAB 3 TIMES, SEQUENTIALLY OVER 3 WK, Promoter: NONE USED","5/10 (50%), 10/13 (77%), -54%, not significant"
same,"tumour outcome (control, treated, inhibition, significance)","Carcinogen: 4-NITROQUINOLINE-1-OXIDE, 56-57-5, Dose [Inhibitor]: 0, 500 PPM IN DIET FOR 10 WK BEGINNING 1 WK PRIOR TO CARCINOGEN TREATMENT (STUDY DURATION: 32 WK), Route [Inhibitor]: ORAL, Species: RAT, Strain/Sex: F344/MALE, Target Tissue: Type of Lesion: TONGUE: CARCINOMA, Dose [Carcinogen]: 20 PPM IN DRINKING WATER FOR 8 WK, Promoter: NONE USED","13/24 (54%), 1/19 (5%), 91%, p<0.05"
same,"tumour outcome (control, treated, inhibition, significance)","Carcinogen: 4-NITROQUINOLINE-1-OXIDE, 56-57-5, Dose [Inhibitor]: 0, 500 PPM IN DIET FOR 10 WK BEGINNING 1 WK PRIOR TO CARCINOGEN TREATMENT (STUDY DURATION: 32 WK), Route [Inhibitor]: ORAL, Species: RAT, Strain/Sex: F344/MALE, Target Tissue: Type of Lesion: TONGUE: PAPILLOMA, Dose [Carcinogen]: 20 PPM IN DRINKING WATER FOR 8 WK, Promoter: NONE USED","4/24 (17%), 0/19 (0%), 100%, not significant"
same,"tumour outcome (control, treated, inhibition, significance)","Carcinogen: 4-NITROQUINOLINE-1-OXIDE, 56-57-5, Dose [Inhibitor]: 0, 500 PPM IN DIET FOR 22 WK BEGINNING 1 WK POST CARCINOGEN TREATMENT (STUDY DURATION: 32 WK), Route [Inhibitor]: ORAL, Species: RAT, Strain/Sex: F344/MALE, Target Tissue: Type of Lesion: TONGUE: CARCINOMA, Dose [Carcinogen]: 20 PPM IN DRINKING WATER FOR 8 WK, Promoter: NONE USED","13/24 (54%), 3/20 (15%), 72%, p<0.05"
same,"tumour outcome (control, treated, inhibition, significance)","Carcinogen: 4-NITROQUINOLINE-1-OXIDE, 56-57-5, Dose [Inhibitor]: 0, 500 PPM IN DIET FOR 22 WK BEGINNING 1 WK POST CARCINOGEN TREATMENT (STUDY DURATION: 32 WK), Route [Inhibitor]: ORAL, Species: RAT, Strain/Sex: F344/MALE, Target Tissue: Type of Lesion: TONGUE: PAPILLOMA, Dose [Carcinogen]: 20 PPM IN DRINKING WATER FOR 8 WK, Promoter: NONE USED","4/24 (17%), 2/20 (10%), 41%, not significant"
same,"tumour outcome (control, treated, inhibition, significance)","Carcinogen: 7,12-DIMETHYLBENZ[A]ANTHRACENE, 57-97-6, Dose [Inhibitor]: 0: 5% IN DIET FOR DURATION OF STUDY BEGINNING 2 WK PRIOR TO CARCINOGEN DOSE (STUDY DURATION: 6 MO), Route [Inhibitor]: ORAL, Species: RAT, Strain/Sex: WISTAR/FEMALE, Target Tissue: Type of Lesion: MAMMARY GLAND: TUMOR, Dose [Carcinogen]: 10 MG IN PEANUT OIL INJECTED INTO SUBCUTANEOUS POUCH CREATED IN THE 5TH AND 6TH MAMMARY GLAND REGION, Promoter: NONE USED","20/20 (100%), 5/20 (25%), 75%, p<0.001"
same,"tumour outcome (control, treated, inhibition, significance)","Carcinogen: 7,12-DIMETHYLBENZ[A]ANTHRACENE, 57-97-6, Dose [Inhibitor]: 0, 2% IN DIET FOR 22 WK BEGINNING 2 WK PRIOR TO CARCINOGEN DOSE (STUDY DURATION: 22 WK), Route [Inhibitor]: ORAL, Species: MOUSE, Strain/Sex: SENCAR/FEMALE, Target Tissue: Type of Lesion: LYMPHATIC SYSTEM:LYMPHOMA OR LEUKEMIA, Dose [Carcinogen]: 1 MG IN 0.1 ML CORN OIL 1/WK FOR 5 WK, Promoter: NONE USED","45%, 21%, 53%, p<0.05"
same,"tumour outcome (control, treated, inhibition, significance)","Carcinogen: 7,12-DIMETHYLBENZ[A]ANTHRACENE, 57-97-6, Dose [Inhibitor]: 0, 2% IN DIET FOR 22 WK BEGINNING 2 WK PRIOR TO CARCINOGEN DOSE (STUDY DURATION: 22 WK), Route [Inhibitor]: ORAL, Species: MOUSE, Strain/Sex: SENCAR/FEMALE, Target Tissue: Type of Lesion: MAMMARY GLAND: TUMOR, Dose [Carcinogen]: 1 MG IN 0.1 ML CORN OIL 1/WK FOR 5 WK, Promoter: NONE USED","68%, 78%, -15%, not significant"
same,"tumour outcome (control, treated, inhibition, significance)","Carcinogen: 7,12-DIMETHYLBENZ[A]ANTHRACENE, 57-97-6, Dose [Inhibitor]: 0, 2% IN DIET FOR 22 WK BEGINNING 2 WK PRIOR TO CARCINOGEN DOSE (STUDY DURATION: 22 WK), Route [Inhibitor]: ORAL, Species: MOUSE, Strain/Sex: SENCAR/FEMALE, Target Tissue: Type of Lesion: OVARY:TUMOR, Dose [Carcinogen]: 1 MG IN 0.1 ML CORN OIL 1/WK FOR 5 WK, Promoter: NONE USED","20%, 8%, 60%, p<0.1"
same,"tumour outcome (control, treated, inhibition, significance)","Carcinogen: 7,12-DIMETHYLBENZ[A]ANTHRACENE, 57-97-6, Dose [Inhibitor]: 0, 3 UMOL IN ACETONE 1/WK FOR 10 WK APPLIED 5 MIN PRIOR TO EACH CARCINOGEN DOSE (STUDY DURATION: 26 WK), Route [Inhibitor]: DERMAL, Species: MOUSE, Strain/Sex: CD-1/FEMALE, Target Tissue: Type of Lesion: SKIN: TUMORS, Dose [Carcinogen]: 2 NMOL 1/WK FOR 10 WK, Promoter: 12-O-TETRADECANOYLPHORBOL-13-ACETATE, 16561-29-8","100%, 98%, 2%, not calculated"
same,"tumour outcome (control, treated, inhibition, significance)","Carcinogen: 7,12-DIMETHYLBENZ[A]ANTHRACENE, 57-97-6, Dose [Inhibitor]: 0, 10 UMOL IN ACETONE 1/WK FOR 10 WK APPLIED 5 MIN PRIOR TO EACH CARCINOGEN DOSE (STUDY DURATION: 26 WK), Route [Inhibitor]: DERMAL, Species: MOUSE, Strain/Sex: CD-1/FEMALE, Target Tissue: Type of Lesion: SKIN: TUMORS, Dose [Carcinogen]: 2 NMOL 1/WK FOR 10 WK, Promoter: 12-O-TETRADECANOYLPHORBOL-13-ACETATE, 16561-29-8","100%, 98%, 2%, not calculated"
same,"tumour outcome (control, treated, inhibition, significance)","Carcinogen: 7,12-DIMETHYLBENZ[A]ANTHRACENE, 57-97-6, Dose [Inhibitor]: 10 UMOL IN 200 µL ACETONE 2/WK FOR 19 WK BEGINNING 1 WK POST CARCINOGEN DOSE (STUDY DURATION: 20 WK), Route [Inhibitor]: DERMAL, Species: MOUSE, Strain/Sex: CD-1/FEMALE, Target Tissue: Type of Lesion: SKIN: PAPILLOMA, Dose [Carcinogen]: 200 NMOL IN 200 µL ACETONE ONCE, Promoter: 12-O-TETRADECANOYLPHORBOL-13-ACETATE, 16561-29-8","68%, 0%, 100%, not calculated"
